Test results: PMC6290463 (The FEBS journal, 2012)
Non-standard residues stand in square brackets, D forms with d. Residues, ends and D or L forms follow the SMILES beside them. *: point of attachment. Sta = CC(C)C[C@H](N)[C@@H](O)CC(=O)O; Isovaleryl = CC(C)CC(=O)*

How the values were obtained:
XMRV PR [1] = biological target: T1, XMRV PR (Xenotropic MuLV-related virus VP62, UniProt A1Z651); assay: HPLC-based cleavage assay with peptide RSLLY-PALTP; format: biochemical; conditions: read-out: XMRV PR Ki; cited from earlier work
XMRV PR [2] = biological target: T1, XMRV PR; conditions: previous study; cited from earlier work
XMRV PR [3] = biological target: T1, XMRV PR; conditions: PDB 3SM1; cited from earlier work
HIV-1 PR = HIV-1 PR (Human immunodeficiency virus type 1 group M subtype B, UniProt P04585, C555A/C583A/L521I/L551I/Q495K); assay: Urea dissociation of HIV-1 PR; format: physicochemical; conditions: half-maximal velocity; urea 0–4.0 M, 5.5 nM HIV-1 PR, 0.3 mM substrate, HPLC

T1 sequence (A1Z651 533-657): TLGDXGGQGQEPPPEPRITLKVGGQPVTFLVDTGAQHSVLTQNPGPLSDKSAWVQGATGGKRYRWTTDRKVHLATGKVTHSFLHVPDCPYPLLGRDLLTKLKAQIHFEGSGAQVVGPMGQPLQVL

Molecule: CC(C)CC(=O)N[C@H](C(=O)N[C@H](C(=O)N[C@@H](CC(C)C)[C@@H](O)CC(=O)N[C@@H](C)C(=O)N[C@@H](CC(C)C)[C@@H](O)CC(=O)O)C(C)C)C(C)C [Pepstatin A, pepstatin A (isovaleryl-Val-Val-Sta-Ala-Sta)] (Isovaleryl-VV[Sta]A[Sta]-OH)
- Ki (XMRV PR [1]): 1.44 µM

Molecule: CC(C)CC(=O)N[C@H](C(=O)N[C@H](C(=O)N[C@@H](CC(C)C)[C@@H](O)CC(=O)N[C@@H](C)C(=O)N[C@@H](CC(C)C)[C@@H](O)CC(=O)O)C(C)C)C(C)C [Pepstatin A, pepstatin A] (Isovaleryl-VV[Sta]A[Sta]-OH)
- Inhibition of XMRV PR (in words) (XMRV PR [2]): only a very weak inhibitor of XMRV PR
- binding mode to XMRV PR (crystal structure) (XMRV PR [3]): two inhibitor molecules binding to the enzyme, leaving the catalytic water in place

Molecule: HIV-1 PR: Purified HIV-1 PR, containing stabilizing mutations (Q7K, L33I, L63I, C67A and C95A)
- Urea dissociation (UC50) (HIV-1 PR): 1.47 M
